# Reference: patent US20040009464A1, “Methods for identifying compounds for inhibition of neoplastic lesions, and pharmacetical compositions containing such compounds” (priority 1998, published 2004)
# Counter-ions that a name gives are not always drawn. Like-named read-outs stand apart in the source and are kept apart here.
# Experiments:
# PC-3 = test: Growth inhibition, neutral red assay, PC-3; format: cell-based, human; settings: free base, five days
# Experimental: (§1) Compound I's activity is not confined to activity against colon cancer cell lines or animal models of colon cancer. It has a broad range of anti-neoplastic effects in various neoplastic cell lines. Various types of human cancer cell lines were propagated under sterile conditions in RPMI 1640 medium with 10% fetal bovine serum, […] L-glutamine and sodium bicarbonate. To determine growth inhibitory effects of Compound I, cells were seeded in 96-well plates at a density of 1000 cells per well. Twenty-four hours after plating, the cells were dosed with various concentrations of the free base of Compound I solubilized in DMSO (final concentration 0.1%). The effect of the drug on tumor cell growth was determined using the neutral red cytotoxicity assay following five days of continuous treatment. Neutral red is a dye that is selectively taken up by viable cells by an ATP-dependent transport mechanism.
# [1] = system: LNCaP prostate tumor cell line; test: Histone-associated DNA fragmentation in LNCaP cells; format: cell-based; settings: 50 μM free base, up to 4 days
# Experimental: (§2) The androgen-sensitive prostate tumor cell line, LNCAP (from ATCC (Rockville, Md.)) was propagated under standard conditions using […] medium containing 5% fetal calve serum and 2 mM glutamine. Primary prostate epithelial cell cultures (PrEC) derived from normal prostate (from Clonetics Inc. (San Diego, Calif.)) were grown under the same conditions as the tumor cell line except a serum-free medium optimized for the growth of such cultures was used (Clonetics Inc). For the experiments, LNCaP or PrEC cells were seeded in 96 well plates at a density of 10,000 cells per well. After 24 hours, the cells were treated with either vehicle (0.1% DMSO) or 50 μM Compound I (freebase) solubilized in DMSO. After various drug treatment times (4, 24, 48, 72, or 99 hours) the cells were lysed and processed for measurement of histone-associated DNA as an indicator of apoptotic cell death (see, Piazza et al., Cancer Research 57: 2452-2459, 1997).
# (§3) This is in marked contrast to conventional chemotherapeutics that induce apoptosis or necrosis in rapidly growing normal and neoplastic cells alike.
# [2] = Seven-day dose-range finding study in rats; format: in vivo; settings: seven days
# [3] = Single, escalating dose human safety study; format: in vivo; settings: oral
# 28-day study in rats = format: in vivo
# [4] = system: aberrant crypt foci (AOM-induced carcinogenesis); test: Azoxymethane-induced aberrant crypt foci (ACF) model in rats; format: in vivo, male Fisher 344 rats; settings: for Mean ACF/colon (+SE): free base, 5 weeks
# Experimental: The growth inhibition IC50 value obtained for Compound I was 0.7 μM in the SW-480 cell line. […] This established rodent model of azoxymethane (“AOM”)-induced carcinogenesis was used to assess the effects of Compound I (free base and salt) on colon cancer development in vivo. ACF are precursors to colonic tumors, and ACF inhibition is predictive of chemo-preventive efficacy.
# In the rats in this experiment, ACF initiation was achieved by two consecutive weekly injections of the carcinogen. Compound I was administered one week prior to ACF initiation and for the duration of the experiment. ACFs were scored after 5 weeks of treatment. Compound I was administered orally to male Fisher 344 rats in the rat chow. Daily food consumption (mg/kg body weight) varied over the course of the study, and therefore Compound I dose was expressed a grams per kg of diet to provide a basis of comparison between doses. […] The experimental groups gained less weight than the controls, which was indicative of bloavailability. However, the weight differences were less than 10% and not considered to affect ACF formation.
# The free base of Compound I inhibited ACF formation as measured by a reduction of crypts per colon. With the exception of the low dose group (only 0.5 g/kg diet), the differences between treatment and control groups were substantial, and statistically significant in the case of the 1.0 and 2.0 g/kg diet group.
# [5] = system: PrEC primary prostate epithelial cells derived from normal prostate; test: Histone-associated DNA fragmentation in PrEC cells; format: cell-based; settings: 50 μM, up to 4 days
# Experimental: as §2, §3
# [6] = dog, in vivo
# MDA-MB-231 = test: Growth inhibition, neutral red assay, MDA-MB-231; format: cell-based, human; settings: free base, five days
# Experimental: as §1
# [7] = rat, in vivo
# NCI-H322M = test: Growth inhibition, neutral red assay, NCI-H322M; format: cell-based, human; settings: free base, five days
# Experimental: as §1
structure (smiles),measurement,setting,value
"CC1=C(CC(=O)NCc2ccccc2)c2cc(F)ccc2/C1=C\c1ccncc1 [Compound I, (Z)-5-fluoro-2-methyl-(4-pyridylidene)-3-(N-benzyl)indenylacetamide hydrochloride]",GI90 μM PC-3,PC-3,82.5 µM
same,histone-associated fragmented DNA,[1],significant increase in fragmented DNA
same,toxicity findings,[2]; 50 mg/kg/day,no observable signs of toxicity
same,toxicity findings,[2]; 500 mg/kg/day,an increase in absolute and relative liver weights in female rats
same,toxicity findings,[2]; 2000 mg/kg/day,"labored breathing and/or abnormal respiratory sounds, decreased weights gains and food consumption in male rats, and increased liver weights in female rats"
same,side effects,[3],no significant side effects at any dose
same,organ weights,"28-day study in rats; 28 days, 2000 mg/kg/day",statistically significant increase in liver weights
same,clinical observations,"28-day study in rats; 28 days, 50, 500 and 2000 mg/kg/day",no abnormal clinical observations
same,Mean ACF/colon (+SE),[4]; 0.5 g/kg diet,149 ± 14 ACF/colon
same,Mean ACF/colon (+SE),[4]; 1 g/kg diet,111 ± 9 ACF/colon
same,Mean ACF/colon (+SE),[4]; 1.5 g/kg diet,132 ± 4 ACF/colon
same,Mean ACF/colon (+SE),[4]; 2.0 g/kg diet,107 ± 15 ACF/colon
same,body weight difference versus controls,"[4]; rats, compound in chow",less than 10%
same,DNA fragmentation,[5],did not affect DNA fragmentation
same,signs of toxicity,[6]; 1000 mg/kg,no signs of toxicity
same,drug-related effects,[6]; 1000 mg/kg/day,At no time in either dosing phase were any obvious signs of drug-related effects observed
same,GI90 μM MDA-MB-231,MDA-MB-231,77.6 µM
same,toxicity findings,"[7]; ip, 1000 mg/kg","reduced body weight gain, with mesenteric adhesions seen in some animals"
same,body weight gain,"[7]; po, 4000 mg/kg",body weight gains were slightly reduced
same,GI90 μM NCI-H322M,NCI-H322M,13.2 µM
